According to patent publication US20140243239A1, “MULTIPLEXED KINASE INHIBITOR BEADS AND USES THEREOF” (University of North Carolina at Chapel Hill, priority 2011, published 2014):

What was measured:
RTKs [1] = experiment: RTK tyrosine phosphorylation/expression in SUM159 cells (RTK arrays, western blot); format: cell-based, human
Method: (§1) Western blotting and RTK arrays: Western blotting and RTK array analysis were performed as previously described (Amin et al., 2010). Amin et al. 2010 Sci Transl Med 2, 16ra17. Detailed methods and antibodies are provided in Supplemental Experimental Procedures.
(§2) Western blotting: Proteins from cell lysates were separated by SDS-PAGE chromatography, transferred to nitrocellulose membranes, and probed with the indicated primary antibodies. Antibodies recognizing pAKT (S473), pAKT (T308), AURA, pAXL (Y702), AXL, c-Myc, DDR1, EGFR, pERK1/2 (T202/Y204), pHER3 (Y1197), MAX, pMEK1/2 (S217/S221), MEK1/2, MKP3, pP70S6K (T389), pPDGFRβ (Y751), pPDGFRβ (Y1009), pPDGFR (Y857), PDGFRβ, pRAF (S338), pRSK1 (T359/S363), pVEGFR2 (Y1175), VEGFR2 were obtained from Cell Signaling Technology. Antibodies for Cyclin A2, Cyclin B1, Cyclin D1, ERK2, RAF, and pRAF (S259) were obtained from Santa Cruz Biotechnology. The antibody recognizing Bim was obtained from Chemicon. The antibody recognizing p-c-Myc (S62) was obtained from Abeam. Secondary HRP-anti-rabbit and HRP-anti-goat secondary antibodies were from Jackson Immunoresearch Laboratories and Santa Cruz Biotechnology, respectively. Western blots were visualized by incubation with SuperSignal West Pico Chemiluminescent Substrate (Thermo Scientific).
RTK arrays: Cells were harvested in RTK array lysis buffer containing 20 mM Tris-HCl (pH 8.0), 1% NP-40, 10% glycerol, 137 mM NaCl, 2 mM EDTA, 1×EDTA-free protease inhibitor cocktail (Roche), and 1% each of phosphatase inhibitor cocktails 1 and 2 (Sigma). After incubating on ice for 20 minutes, cell debris was pelleted at 4° C. Lysates (500 μg protein) were applied to R&D Systems Proteome Profiler™ Human Phospho-RTK antibody arrays. Washing and secondary antibody steps were performed according to the manufacturer“s instructions. RTK arrays were visualized by SuperSignal West Pico Chemiluminescent Substrate (Thermo Scientific).

RTKs [2] = experiment: RTK expression in SUM159-R cells (western blot, qRT-PCR); format: cell-based, human; conditions: 10 nM bortezomib, 24 h
Method: (§3) Detailed methods and antibodies are provided in Supplemental Experimental Procedures.
(§4) Generation of AZD6244 resistant SUM159 cells: SUM159 cells were cultured in DMEM/F12 supplemented with 10% FBS media containing 5 μM AZD6244. Media was changed every 2 days, maintaining inhibitor concentrations of 5 μM AZD6244.

c-Myc = c-Myc protein and RNA levels in SUM159 cells (western blot, qRT-PCR); format: cell-based, human
Method: as §1
qRT-PCR: Total RNA was isolated from human breast cancer cell lines or murine tumors using the RNeasy® Plus Mini Kit (Qiagen). Real-time RT-PCR was performed on diluted cDNA using the Applied Biosystems 7500 Fast Real-Time PCR System (standard program) and inventoried TaqMan® Gene Expression Assays. Each cDNA sample was assayed in triplicate. Fold change with respect to the calibrator represents the average of the triplicate values, with error bars representing the range of the mean (95% confidence).
as §2

ERK1/2 [3] = experiment: Western blot of MEK/ERK signaling in SUM159 cells; format: cell-based, human; conditions: BEZ235 (FIG. 10F)
Description: as §3, §2

p70 S6 kinase [4] = experiment: p70 S6 kinase activity in SUM159 cells; format: cell-based, human; conditions: BEZ235 (FIG. 10F)
Description: as §3, §2

SUM159 cells = experiment: SUM159 cell growth (Cell-Titer Glo, cell counts); format: cell-based, human; conditions: for SUM159 cell growth inhibition in combination with AZD6244 / SUM159 cell growth inhibition, RTK inhibitor as single agent: Cell-Titer Glo (FIG. 5C, 5D)
Method: (§5) Cell Culture: MDA-MB-231 cells were grown in DMEM/F12 supplemented with 10% FBS. SUM-159 cells were grown in DMEM/F12 supplemented with 10% FBS 1 μg/mL hydrocortisone, and 5 μg/mL insulin. SUM159-R cells were continually grown in the presence of 5 μM AZD6244. For SILAC labeling, cells were grown for five doublings in arginine- and lysine-depleted media (as above) supplemented with either unlabeled L-arginine (42 mg/L) and L-lysine (71 mg/L) or equimolar amounts of heavy isotope labeled [13C6,15N4]arginine (Arg10) and [13C6]lysine (Lys6) (Cambridge Isotope Laboratories). Proliferation was quantified using Cell-Titer Glo Luminescent Cell Viability Assay (Promega). Fresh media containing DMSO or kinase inhibitors was added daily and experiments were performed in triplicate.

MDA-MB-231 cells = experiment: MDA-MB-231 cell growth (Cell-Titer Glo); format: cell-based, human; conditions: for MDA-MB-231 cell growth in combination with AZD6244: combination with AZD6244 (FIG. 12C, 12D, 12G)
Method: as §5

[5] = tested on: ALK, RET, INSR and IGF-1R; experiment: RTK phosphorylation in pancreatic cancer cells (RTK arrays); format: cell-based
Method: (§6) Kinome reprogramming in pancreatic cancer—cell type and inhibitor specific. The kinome response to drug in 3 pancreatic cancer cell lines (HPAC, AsPC-1, HPAF-II) was also evaluated using 3 kinase inhibitors that are currently in Phase I/II clinical trials: BKM120 (Novartis), an oral pan-class 1 PI3K inhibitor, […] (Glaxo Smith-Kline), an ATP competitive PI3K/mTOR inhibitor, and GSK1120212, a reversible allosteric inhibitor of MEK1/2 (Glaxo Smith-Kline). The kinome response for GSK2126458 and GSK1120212 was compared using MIB/MS and RTK arrays to determine if kinome reprogramming was inhibitor-specific. […] Thus, kinome reprogramming is target-specific.
Kinome reprogramming in pancreatic cancer cell lines: HPAC, AsPC-1, HPAF-II cell lines were treated with either GSK1120212, GSK2126458, BKM120 or vehicle control and harvested at […]. Normalized spot intensity of RTK arrays were measured and activated and repressed RTK were determined in response to either GSK1120212 or GSK2126458 4 h and 72 h after treatment.

p70 S6 kinase [6] = experiment: p70 S6 kinase activity in HPAC pancreatic cancer cells; format: cell-based
Method: as §6

SUM159-R cells = experiment: Growth of AZD6244-resistant SUM159-R cells; format: cell-based, human; conditions: 250 nM sorafenib, 72 h, cells grown in 5 μM AZD6244
Method: as §5, §4

ERK = experiment: MEK/ERK activation in C3Tag tumors (western blot); format: in vivo, mouse; conditions: AZD6244 20 mg/kg 28 days; sorafenib 30 mg/kg 26 days
Method: (§7) Treatment began the same day. Tumor size was assessed twice weekly by caliper measurements of tumor areas ((width)2×length))/2 for 21 days. […] Drugs were incorporated into the diet of mice to achieve a daily dose of AZD6244 20 mg/kg and sorafenib 30 mg/kg. […] Tumors at harvest were cut in half and either snap-frozen in liquid nitrogen and stored at −80° C. or placed in neutral buffered 10% formalin solution.
as §2, with “Western blots were visualized by incubation with SuperSignal West Pico Chemiluminescent Substrate (Thermo Scientific).” left out

RTKs [7] = experiment: RTK expression in C3Tag tumors (western blot); format: in vivo, mouse; conditions: AZD6244 20 mg/kg 28 days; sorafenib 30 mg/kg 26 days
Method: as §7, §2

C3Tag tumors = experiment: In vivo tumorigenesis experiment, C3Tag TNBC GEMM (tumor volume); design: species or system mouse; conditions: C3Tag mice, 21 days, sorafenib 30 mg/kg in diet
Method: In vivo tumorigenesis experiments: Animal handling and procedures were approved by the University of North Carolina at Chapel Hill Institutional Animal Care and Use Committee and followed the NIH guidelines. Male C3Tag mice were bred with wild type females to produce experimental offspring. Mice were examined for tumors weekly until a palpable mass was found. Treatment began the same day. Tumor size was assessed twice weekly by caliper measurements of tumor areas ((width)2×length))/2 for 21 days. Percent change of tumor volume was calculated using (Final volume−Initial Volume)/Initial Volume and graphed using R (http://www.r-project.org/). Drugs were incorporated into the diet of mice to achieve a daily dose of AZD6244 20 mg/kg and sorafenib 30 mg/kg. Food was provided ab libitum and the amount of daily food intake was pre-determined using Jackson Labs Phenome Database. Tumors at harvest were cut in half and either snap-frozen in liquid nitrogen and stored at −80° C. or placed in neutral buffered 10% formalin solution.

ERK1/2 [8] = experiment: ERK activity in SUM159-R cells (western blot); format: cell-based, human; conditions: sorafenib (250 nM) added to 5 μM AZD6244
Method: as §3, §4, §2

[9] = tested on: kinome (kinase binding to MIBs) of C3Tag tumors; experiment: MIB/MS kinome profile of C3Tag tumors; format: in vivo, mouse; conditions: sorafenib 30 mg/kg, 26 days
Description: Multiplexed inhibitor bead affinity chromatography: Cells and tumors were lysed and harvested as previously described (Oppermann et al., 2009). Oppermann et al., 2009 Mol Cell Proteo 8 1751-1764. Briefly, lysates were brought to 1 M NaCl and passed through columns of washed inhibitor-conjugated beads (bisindoylmaleimide-X, SB203580, lapatinib, dasatinib, purvalanol B, VI16832, PP58) to isolate protein kinases from the lysates (see Supplemental Experimental Procedures for MIBs preparation). Kinase-bound inhibitor beads were washed with high-salt buffer and 0.1% SDS before elution in 0.5% SDS solution in high heat. Proteins were purified using chloroform/methanol extraction, resuspended in 50 mM ammonium bicarbonate (pH 8.0) or 50 mM HEPES (pH 8.0) for SILAC or iTRAQ respectfully. […]
LC-MS/MS analysis: MS and MS/MS data were acquired using a MALDI TOF/TOF 5800 (AB SCIEX). Peptides were analyzed using ProteinPilot Software Version 3.0 (AB SCIEX) and identification using UniProtKB/Swiss-Prot database (release Oct. 15, 2009). […] ProteinPilot software 3.0 identified and quantified changes in kinase binding to MIBs utilizing the Pro Group Algorithm. […]
Treatment began the same day. Tumor size was assessed twice weekly by caliper measurements of tumor areas ((width)2×length))/2 for 21 days. […]

CC(C)C[C@H](NC(=O)[C@H](Cc1ccccc1)NC(=O)c1cnccn1)B(O)O [bortezomib]
AZD6244-dependent upregulation of RTKs (RTKs [1]; bortezomib 3, 10 or 20 nM with 5 μM AZD6244, 24 h): inhibited upregulation of RTKs
RTK expression in SUM159-R cells (RTKs [2]): readily reversed RTK expression
AZD6244-induced c-Myc degradation (c-Myc; bortezomib with 5 μM AZD6244, 24 h): prevented AZD6244-induced c-Myc degradation

Cn1c(=O)n(-c2ccc(C(C)(C)C#N)cc2)c2c3cc(-c4cnc5ccccc5c4)ccc3ncc21 [BEZ235]
RTK phosphorylation profile (RTKs [1]; 5 μM AZD6244, 50 nM BEZ235 (FIG. 3H)): did not change the RTK phosphorylation profile except for an increase in phospho-AXL
effect on the ERK pathway (ERK1/2 [3]): little effect
c-Myc expression (c-Myc; BEZ235 100 nM (FIG. 11C)): does not change
p70 S6 kinase activity (p70 S6 kinase [4]): inhibits p70 S6 kinase activity
growth of SUM159 cells (SUM159 cells; BEZ235 50 nM): strongly growth arrests

CCCS(=O)(=O)Nc1ccc(F)c(C(=O)c2c[nH]c3ncc(Cl)cc23)c1F [PLX4720]
growth of SUM159 cells, RAF inhibitor in combination with AZD6244 (SUM159 cells; cotreatment 72 h (FIG. 12F)): stimulated the growth

COc1cc2c(Oc3ccc(NC(=O)C4(C(=O)Nc5ccc(F)cc5)CC4)cc3F)ccnc2cc1OCCCN1CCOCC1 [foretinib]
MDA-MB-231 cell growth in combination with AZD6244 (MDA-MB-231 cells): little effect
SUM159 cell growth inhibition in combination with AZD6244 (SUM159 cells): synergistic
SUM159 cell growth inhibition, RTK inhibitor as single agent (SUM159 cells): ineffective as single agents

N#CC(=C(/N)Sc1ccccc1N)/C(C#N)=C(\N)Sc1ccccc1N [U0126]
growth of MDA-MB-231 cells (MDA-MB-231 cells; 5 μM MEK inhibitor (FIG. 9A)): inhibited growth
growth of SUM159 cells (SUM159 cells; 5 μM MEK inhibitor (FIG. 2A)): inhibited growth

COc1ncc(-c2ccc3nccc(-c4ccnnc4)c3c2)cc1NS(=O)(=O)c1ccc(F)cc1F [GSK2126458]
ALK, RET, INSR and IGF-1R phosphorylation [5]: induced ALK, RET, INSR and IGF-1R phosphorylation
p70 S6 kinase activity (p70 S6 kinase [6]): inhibited p70 S6 kinase activity

CNC(=O)c1cc(Oc2ccc(NC(=O)Nc3ccc(Cl)c(C(F)(F)F)c3)cc2)ccn1 [sorafenib]
Tyr phosphorylation of RTKs induced by AZD6244 (RTKs [1]; RTK arrays, 72 h, with AZD6244): inhibited Tyr phosphorylation of multiple RTKs
growth of SUM159-R cells, cell counts (SUM159-R cells): Inhibited cell growth
tumor MEK and ERK compared to untreated animals (ERK): strongly activated
expression of RTKs in C3Tag tumors versus untreated (RTKs [7]): do not alter RTK expression
MDA-MB-231 cell growth in combination with AZD6244 (MDA-MB-231 cells): synergizes
effect on tumor progression (C3Tag tumors): no effect
ERK activity in SUM159-R cells (ERK1/2 [8]): inhibited ERK activity
MIB binding of BRAF, PDGFRβ, CSF1R, DDR1, DDR2, KIT, MLTK and FRK [9]: decreased MIB binding
SUM159 cell growth inhibition in combination with AZD6244 (SUM159 cells): synergistic
SUM159 cell growth inhibition, RTK inhibitor as single agent (SUM159 cells): ineffective as single agents
growth of SUM159 cells, sorafenib at the highest dose tested in combination with AZD6244 (SUM159 cells; highest dose tested, 72 h): synergistically inhibited growth
SUM159 proliferation, sorafenib at low doses in combination with AZD6244 (SUM159 cells; low doses, 72 h): did not significantly stimulate proliferation
